Measurements taken from ChEMBL document CHEMBL1201861, “Genomics of Drug Sensitity in Cancer screening data, Wellcome Trust Sanger Institute”.

test system: LXF-289 cell line; test: cells; type: functional, cell-based, Homo sapiens; conditions: Homo sapiens, LXF-289
Description: SANGER: Inhibition of human LXF-289 cell growth in a cell viability assay.

Compound	IC50 [µM]
C=C(c1ccc(C(=O)O)cc1)c1cc2c(cc1C)C(C)(C)CCC2(C)C [BEXAROTENE]	> 8

test system: MHH-PREB-1; test: cells; type: functional, cell-based, Homo sapiens; conditions: Homo sapiens, MHH-PREB-1;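 note: cell viability assay measuring inhibition of proliferation of human MHH-PREB-1 cells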
Description: SANGER: Inhibition of human MHH-PREB-1 cell growth in a cell viability assay.

Compound	IC50 [µM]
C=C(c1ccc(C(=O)O)cc1)c1cc2c(cc1C)C(C)(C)CCC2(C)C [BEXAROTENE]	> 8

test system: 697; test: cells; type: functional, cell-based, Homo sapiens; conditions: Homo sapiens
Description: SANGER: Inhibition of human 697 cell growth in a cell viability assay.

Compound	IC50 [µM]
C=C(c1ccc(C(=O)O)cc1)c1cc2c(cc1C)C(C)(C)CCC2(C)C [BEXAROTENE]	> 8

test system: TE-8; test: cells; type: functional, cell-based, Homo sapiens; conditions: Homo sapiens, TE-8;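 note: growth inhibition of TE-8 cells, measured with a cell viability readout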
Description: SANGER: Inhibition of human TE-8 cell growth in a cell viability assay.

Compound	IC50 [µM]
C=C(c1ccc(C(=O)O)cc1)c1cc2c(cc1C)C(C)(C)CCC2(C)C [BEXAROTENE]	> 8

test system: U-266; test: cells; type: functional, cell-based, Homo sapiens; conditions: Homo sapiens, U-266
Description: SANGER: Inhibition of human U-266 cell growth in a cell viability assay.

Compound	IC50 [µM]
C=C(c1ccc(C(=O)O)cc1)c1cc2c(cc1C)C(C)(C)CCC2(C)C [BEXAROTENE]	> 8

test system: NCI-H1648; test: cells; type: functional, cell-based, Homo sapiens; conditions: Homo sapiens, NCI-H1648;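 note: cell viability assay measuring inhibition of NCI-H1648 cell growth, from the Sanger screening data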
Description: SANGER: Inhibition of human NCI-H1648 cell growth in a cell viability assay.

Compound	IC50 [µM]
C=C(c1ccc(C(=O)O)cc1)c1cc2c(cc1C)C(C)(C)CCC2(C)C [BEXAROTENE]	> 8

test system: KMOE-2; test: cells; type: functional, cell-based, Homo sapiens; conditions: Homo sapiens, KMOE-2;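 note: growth inhibition of human KMOE-2 cells, read out with a cell viability assay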
Description: SANGER: Inhibition of human KMOE-2 cell growth in a cell viability assay.

Compound	IC50 [µM]
C=C(c1ccc(C(=O)O)cc1)c1cc2c(cc1C)C(C)(C)CCC2(C)C [BEXAROTENE]	> 8

test system: HDLM-2; test: cells; type: functional, cell-based, Homo sapiens; conditions: Homo sapiens, HDLM-2;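 note: cell viability assay measuring suppression of HDLM-2 proliferation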
Description: SANGER: Inhibition of human HDLM-2 cell growth in a cell viability assay.

Compound	IC50 [µM]
C=C(c1ccc(C(=O)O)cc1)c1cc2c(cc1C)C(C)(C)CCC2(C)C [BEXAROTENE]	> 8

test system: TGBC1TKB; test: cells; type: functional, cell-based, Homo sapiens; conditions: Homo sapiens, TGBC1TKB;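 note: growth inhibition of TGBC1TKB cells, read out by a cell viability assay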
Description: SANGER: Inhibition of human TGBC1TKB cell growth in a cell viability assay.

Compound	IC50 [µM]
C=C(c1ccc(C(=O)O)cc1)c1cc2c(cc1C)C(C)(C)CCC2(C)C [BEXAROTENE]	> 8

test system: SK-UT-1; test: cells; type: functional, cell-based, Homo sapiens; conditions: Homo sapiens, SK-UT-1;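 note: growth inhibition of SK-UT-1 cells, measured by a cell viability assay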
Description: SANGER: Inhibition of human SK-UT-1 cell growth in a cell viability assay.

Compound	IC50 [µM]
C=C(c1ccc(C(=O)O)cc1)c1cc2c(cc1C)C(C)(C)CCC2(C)C [BEXAROTENE]	> 8

test system: ML-2; test: cells; type: functional, cell-based, Homo sapiens; conditions: Homo sapiens, ML-2;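 note: growth inhibition of ML-2 cells, measured with a cell viability readout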
Description: SANGER: Inhibition of human ML-2 cell growth in a cell viability assay.

Compound	IC50 [µM]
C=C(c1ccc(C(=O)O)cc1)c1cc2c(cc1C)C(C)(C)CCC2(C)C [BEXAROTENE]	> 8

test system: KNS-81-FD; test: cells; type: functional, cell-based, Homo sapiens; conditions: Homo sapiens, KNS-81-FD;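 note: growth inhibition of KNS-81-FD cells, read out with a cell viability assay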
Description: SANGER: Inhibition of human KNS-81-FD cell growth in a cell viability assay.

Compound	IC50 [µM]
C=C(c1ccc(C(=O)O)cc1)c1cc2c(cc1C)C(C)(C)CCC2(C)C [BEXAROTENE]	> 8

test system: COLO-668; test: cells; type: functional, cell-based, Homo sapiens; conditions: Homo sapiens, COLO-668
Description: SANGER: Inhibition of human COLO-668 cell growth in a cell viability assay.

Compound	IC50 [µM]
C=C(c1ccc(C(=O)O)cc1)c1cc2c(cc1C)C(C)(C)CCC2(C)C [BEXAROTENE]	> 8

test system: SW872; test: cells; type: functional, cell-based, Homo sapiens; conditions: Homo sapiens, SW872;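 note: growth inhibition of SW872 cells, read out by a viability assay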
Description: SANGER: Inhibition of human SW872 cell growth in a cell viability assay.

Compound	IC50 [µM]
C=C(c1ccc(C(=O)O)cc1)c1cc2c(cc1C)C(C)(C)CCC2(C)C [BEXAROTENE]	> 8

test system: SNB-75; test: cells; type: functional, cell-based, Homo sapiens; conditions: Homo sapiens, SNB-75;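 note: cell viability assay measuring growth inhibition of human SNB-75 cells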
Description: SANGER: Inhibition of human SNB75 cell growth in a cell viability assay.

Compound	IC50 [µM]
C=C(c1ccc(C(=O)O)cc1)c1cc2c(cc1C)C(C)(C)CCC2(C)C [BEXAROTENE]	> 8

test system: LS-123; test: cells; type: functional, cell-based, Homo sapiens; conditions: Homo sapiens, LS-123
Description: SANGER: Inhibition of human LS-123 cell growth in a cell viability assay.

Compound	IC50 [µM]
C=C(c1ccc(C(=O)O)cc1)c1cc2c(cc1C)C(C)(C)CCC2(C)C [BEXAROTENE]	> 8

test system: COLO-684; test: cells; type: functional, cell-based, Homo sapiens; conditions: Homo sapiens, COLO-684
Description: SANGER: Inhibition of human COLO-684 cell growth in a cell viability assay.

Compound	IC50 [µM]
C=C(c1ccc(C(=O)O)cc1)c1cc2c(cc1C)C(C)(C)CCC2(C)C [BEXAROTENE]	> 8

test system: ES1; test: cells; type: functional, cell-based, Homo sapiens; conditions: Homo sapiens, ES1;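 note: growth inhibition of ES1 cells, read out with a cell viability assay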
Description: SANGER: Inhibition of human ES1 cell growth in a cell viability assay.

Compound	IC50 [µM]
C=C(c1ccc(C(=O)O)cc1)c1cc2c(cc1C)C(C)(C)CCC2(C)C [BEXAROTENE]	> 8

test system: ES7; test: cells; type: functional, cell-based, Homo sapiens; conditions: Homo sapiens, ES7;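 note: growth inhibition of cultured human ES7 cells, read out as cell viability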
Description: SANGER: Inhibition of human ES7 cell growth in a cell viability assay.

Compound	IC50 [µM]
C=C(c1ccc(C(=O)O)cc1)c1cc2c(cc1C)C(C)(C)CCC2(C)C [BEXAROTENE]	> 8

test system: COLO-829; test: cells; type: functional, cell-based, Homo sapiens; conditions: Homo sapiens, COLO-829
Description: SANGER: Inhibition of human COLO-829 cell growth in a cell viability assay.

Compound	IC50 [µM]
C=C(c1ccc(C(=O)O)cc1)c1cc2c(cc1C)C(C)(C)CCC2(C)C [BEXAROTENE]	> 8

test system: LAN-6; test: cells; type: functional, cell-based, Homo sapiens; conditions: Homo sapiens, LAN-6;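 note: growth inhibition of LAN-6 cells, determined with a cell viability assay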
Description: SANGER: Inhibition of human LAN-6 cell growth in a cell viability assay.

Compound	IC50 [µM]
C=C(c1ccc(C(=O)O)cc1)c1cc2c(cc1C)C(C)(C)CCC2(C)C [BEXAROTENE]	> 8

test system: SW982; test: cells; type: functional, cell-based, Homo sapiens; conditions: Homo sapiens, SW982;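 note: growth inhibition of SW982 cells, read out with a cell viability assay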
Description: SANGER: Inhibition of human SW982 cell growth in a cell viability assay.

Compound	IC50 [µM]
C=C(c1ccc(C(=O)O)cc1)c1cc2c(cc1C)C(C)(C)CCC2(C)C [BEXAROTENE]	> 8

test system: GT3TKB; test: cells; type: functional, cell-based, Homo sapiens; conditions: Homo sapiens, GT3TKB;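 note: growth inhibition of the cell line, read out with a cell viability assay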
Description: SANGER: Inhibition of human GT3TKB cell growth in a cell viability assay.

Compound	IC50 [µM]
C=C(c1ccc(C(=O)O)cc1)c1cc2c(cc1C)C(C)(C)CCC2(C)C [BEXAROTENE]	> 8

test system: CCRF-CEM; test: cells; type: functional, cell-based, Homo sapiens; conditions: Homo sapiens, CCRF-CEM;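 note: inhibition of CCRF-CEM cell growth, measured by a cell viability assay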
Description: SANGER: Inhibition of human CCRF-CEM cell growth in a cell viability assay.

Compound	IC50 [µM]
C=C(c1ccc(C(=O)O)cc1)c1cc2c(cc1C)C(C)(C)CCC2(C)C [BEXAROTENE]	> 8

test system: A253 cell line; test: cells; type: functional, cell-based, Homo sapiens; conditions: Homo sapiens, A253;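 note: growth inhibition of A253 cells, read out with a cell viability assay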
Description: SANGER: Inhibition of human A253 cell growth in a cell viability assay.

Compound	IC50 [µM]
C=C(c1ccc(C(=O)O)cc1)c1cc2c(cc1C)C(C)(C)CCC2(C)C [BEXAROTENE]	> 8

test system: GB-1; test: cells; type: functional, cell-based, Homo sapiens; conditions: Homo sapiens, GB-1;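 note: growth of GB-1 cells judged by a viability assay, IC50 marks the concentration inhibiting growth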
Description: SANGER: Inhibition of human GB-1 cell growth in a cell viability assay.

Compound	IC50 [µM]
C=C(c1ccc(C(=O)O)cc1)c1cc2c(cc1C)C(C)(C)CCC2(C)C [BEXAROTENE]	> 8

test system: RPMI-8866; test: cells; type: functional, cell-based, Homo sapiens; conditions: Homo sapiens, RPMI-8866
Description: SANGER: Inhibition of human RPMI-8866 cell growth in a cell viability assay.

Compound	IC50 [µM]
C=C(c1ccc(C(=O)O)cc1)c1cc2c(cc1C)C(C)(C)CCC2(C)C [BEXAROTENE]	> 8

test system: SCC-15; test: cells; type: functional, cell-based, Homo sapiens; conditions: Homo sapiens, SCC-15;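 note: growth inhibition of SCC-15 cells, read out with a cell viability assay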
Description: SANGER: Inhibition of human SCC-15 cell growth in a cell viability assay.

Compound	IC50 [µM]
C=C(c1ccc(C(=O)O)cc1)c1cc2c(cc1C)C(C)(C)CCC2(C)C [BEXAROTENE]	> 8

test system: MHH-NB-11; test: cells; type: functional, cell-based, Homo sapiens; conditions: Homo sapiens, MHH-NB-11;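 note: growth inhibition of human MHH-NB-11 cells, read out by a cell viability assay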
Description: SANGER: Inhibition of human MHH-NB-11 cell growth in a cell viability assay.

Compound	IC50 [µM]
C=C(c1ccc(C(=O)O)cc1)c1cc2c(cc1C)C(C)(C)CCC2(C)C [BEXAROTENE]	> 8

test system: NKM-1; test: cells; type: functional, cell-based, Homo sapiens; conditions: Homo sapiens, NKM-1;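 note: growth inhibition of NKM-1 cells, read out with a cell viability assay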
Description: SANGER: Inhibition of human NKM-1 cell growth in a cell viability assay.

Compound	IC50 [µM]
C=C(c1ccc(C(=O)O)cc1)c1cc2c(cc1C)C(C)(C)CCC2(C)C [BEXAROTENE]	> 8

test system: VA-ES-BJ; test: cells; type: functional, cell-based, Homo sapiens; conditions: Homo sapiens, VA-ES-BJ;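 note: growth inhibition of the VA-ES-BJ cell line, read out by a cell viability assay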
Description: SANGER: Inhibition of human VA-ES-BJ cell growth in a cell viability assay.

Compound	IC50 [µM]
C=C(c1ccc(C(=O)O)cc1)c1cc2c(cc1C)C(C)(C)CCC2(C)C [BEXAROTENE]	> 8

test system: ONS-76; test: cells; type: functional, cell-based, Homo sapiens; conditions: Homo sapiens, ONS-76;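 note: growth inhibition of human ONS-76 cells, read out with a cell viability assay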
Description: SANGER: Inhibition of human ONS-76 cell growth in a cell viability assay.

Compound	IC50 [µM]
C=C(c1ccc(C(=O)O)cc1)c1cc2c(cc1C)C(C)(C)CCC2(C)C [BEXAROTENE]	> 8

test system: TGBC24TKB; test: cells; type: functional, cell-based, Homo sapiens; conditions: Homo sapiens, TGBC24TKB;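 note: growth inhibition of human TGBC24TKB cells, read out with a cell viability assay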
Description: SANGER: Inhibition of human TGBC24TKB cell growth in a cell viability assay.

Compound	IC50 [µM]
C=C(c1ccc(C(=O)O)cc1)c1cc2c(cc1C)C(C)(C)CCC2(C)C [BEXAROTENE]	> 8

test system: COLO-800; test: cells; type: functional, cell-based, Homo sapiens; conditions: Homo sapiens, COLO-800;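 note: growth inhibition of COLO-800 cells, read out with a cell viability assay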
Description: SANGER: Inhibition of human COLO-800 cell growth in a cell viability assay.

Compound	IC50 [µM]
C=C(c1ccc(C(=O)O)cc1)c1cc2c(cc1C)C(C)(C)CCC2(C)C [BEXAROTENE]	> 8

test system: no-11; test: cells; type: functional, cell-based, Homo sapiens; conditions: Homo sapiens;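 note: growth inhibition of human NO-11 cells, read out with a cell viability assay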
Description: SANGER: Inhibition of human no-11 cell growth in a cell viability assay.

Compound	IC50 [µM]
C=C(c1ccc(C(=O)O)cc1)c1cc2c(cc1C)C(C)(C)CCC2(C)C [BEXAROTENE]	> 8

test system: BB49-HNC; test: cells; type: functional, cell-based, Homo sapiens; conditions: Homo sapiens, BB49-HNC;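 note: cell viability assay read-out, reported as inhibition of BB49-HNC cell growth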
Description: SANGER: Inhibition of human BB49-HNC cell growth in a cell viability assay.

Compound	IC50 [µM]
C=C(c1ccc(C(=O)O)cc1)c1cc2c(cc1C)C(C)(C)CCC2(C)C [BEXAROTENE]	> 8

test system: SNU1; test: cells; type: functional, cell-based, Homo sapiens; conditions: Homo sapiens, SNU1;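 note: growth inhibition of human NCI-SNU-1 cells, measured with a cell viability assay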
Description: SANGER: Inhibition of human NCI-SNU-1 cell growth in a cell viability assay.

Compound	IC50 [µM]
C=C(c1ccc(C(=O)O)cc1)c1cc2c(cc1C)C(C)(C)CCC2(C)C [BEXAROTENE]	> 8

test system: EC-GI-10; test: cells; type: functional, cell-based, Homo sapiens; conditions: Homo sapiens, EC-GI-10
Description: SANGER: Inhibition of human EC-GI-10 cell growth in a cell viability assay.

Compound	IC50 [µM]
C=C(c1ccc(C(=O)O)cc1)c1cc2c(cc1C)C(C)(C)CCC2(C)C [BEXAROTENE]	> 8

test system: LB1047-RCC; test: cells; type: functional, cell-based, Homo sapiens; conditions: Homo sapiens, LB1047-RCC;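 note: inhibition of cell growth, determined with a cell viability assay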
Description: SANGER: Inhibition of human LB1047-RCC cell growth in a cell viability assay.

Compound	IC50 [µM]
C=C(c1ccc(C(=O)O)cc1)c1cc2c(cc1C)C(C)(C)CCC2(C)C [BEXAROTENE]	> 8

test system: KLE; test: cells; type: functional, cell-based, Homo sapiens; conditions: Homo sapiens, KLE;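 note: growth inhibition of human KLE cells, read out with a cell viability assay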
Description: SANGER: Inhibition of human KLE cell growth in a cell viability assay.

Compound	IC50 [µM]
C=C(c1ccc(C(=O)O)cc1)c1cc2c(cc1C)C(C)(C)CCC2(C)C [BEXAROTENE]	> 8

test system: CTV-1; test: cells; type: functional, cell-based, Homo sapiens; conditions: Homo sapiens, CTV-1;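 note: growth inhibition of the cell line, read out with a cell viability assay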
Description: SANGER: Inhibition of human CTV-1 cell growth in a cell viability assay.

Compound	IC50 [µM]
C=C(c1ccc(C(=O)O)cc1)c1cc2c(cc1C)C(C)(C)CCC2(C)C [BEXAROTENE]	> 8

test system: TE-12; test: cells; type: functional, cell-based, Homo sapiens; conditions: Homo sapiens, TE-12;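 note: growth inhibition of TE-12 cells, read out by a cell viability assay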
Description: SANGER: Inhibition of human TE-12 cell growth in a cell viability assay.

Compound	IC50 [µM]
C=C(c1ccc(C(=O)O)cc1)c1cc2c(cc1C)C(C)(C)CCC2(C)C [BEXAROTENE]	> 8

test system: CP66-MEL; test: cells; type: functional, cell-based, Homo sapiens; conditions: Homo sapiens, CP66-MEL;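 note: growth inhibition of CP66-MEL cells determined in a cell viability assay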
Description: SANGER: Inhibition of human CP66-MEL cell growth in a cell viability assay.

Compound	IC50 [µM]
C=C(c1ccc(C(=O)O)cc1)c1cc2c(cc1C)C(C)(C)CCC2(C)C [BEXAROTENE]	> 8

test system: EOL1; test: cells; type: functional, cell-based, Homo sapiens; conditions: Homo sapiens, EOL1;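 note: growth inhibition of EoL-1 cells, read out by a cell viability assay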
Description: SANGER: Inhibition of human EoL-1-cell cell growth in a cell viability assay.

Compound	IC50 [µM]
C=C(c1ccc(C(=O)O)cc1)c1cc2c(cc1C)C(C)(C)CCC2(C)C [BEXAROTENE]	> 8

test system: SF-126; test: cells; type: functional, cell-based, Homo sapiens; conditions: Homo sapiens, SF-126;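 note: growth inhibition of human SF126 cells, read out with a cell viability assay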
Description: SANGER: Inhibition of human SF126 cell growth in a cell viability assay.

Compound	IC50 [µM]
C=C(c1ccc(C(=O)O)cc1)c1cc2c(cc1C)C(C)(C)CCC2(C)C [BEXAROTENE]	> 8

test system: NCI-H510A; test: cells; type: functional, cell-based, Homo sapiens; conditions: Homo sapiens, NCI-H510A;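 note: growth inhibition of NCI-H510A cells, read out with a cell viability assay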
Description: SANGER: Inhibition of human NCI-H510A cell growth in a cell viability assay.

Compound	IC50 [µM]
C=C(c1ccc(C(=O)O)cc1)c1cc2c(cc1C)C(C)(C)CCC2(C)C [BEXAROTENE]	> 8

test system: EW-18; test: cells; type: functional, cell-based, Homo sapiens; conditions: Homo sapiens, EW-18;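 note: growth inhibition of EW-18 cells, read out by a cell viability assay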
Description: SANGER: Inhibition of human EW-18 cell growth in a cell viability assay.

Compound	IC50 [µM]
C=C(c1ccc(C(=O)O)cc1)c1cc2c(cc1C)C(C)(C)CCC2(C)C [BEXAROTENE]	> 8

test system: DSH1; test: cells; type: functional, cell-based, Homo sapiens; conditions: Homo sapiens, DSH1;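 note: growth inhibition of human DSH1 cells, measured with a cell viability readout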
Description: SANGER: Inhibition of human DSH1 cell growth in a cell viability assay.

Compound	IC50 [µM]
C=C(c1ccc(C(=O)O)cc1)c1cc2c(cc1C)C(C)(C)CCC2(C)C [BEXAROTENE]	> 8

test system: NB69; test: cells; type: functional, cell-based, Homo sapiens; conditions: Homo sapiens, NB69;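 note: growth inhibition of NB69 cells, determined by a cell viability assay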
Description: SANGER: Inhibition of human NB69 cell growth in a cell viability assay.

Compound	IC50 [µM]
C=C(c1ccc(C(=O)O)cc1)c1cc2c(cc1C)C(C)(C)CCC2(C)C [BEXAROTENE]	> 8
